Converted amounts (≈) assume the structure as drawn. Read-outs that look alike come from different tables or passages of the source.
Columns and labels:
[1] = test system: P. aeruginosa CDC-0054; assay: microbe, parasite or virus in culture; assay type: cell-based; conditions: Pseudomonas aeruginosa, CDC0054, read-out: Minimum inhibitory concentration, P. aeruginosa CDC-0054
[2] = test system: A. baumannii ATCC 17978; assay: microbe, parasite or virus in culture; assay type: cell-based; conditions: Acinetobacter baumannii, ATCC17978, read-out: MIC, A. baumannii ATCC 17978
[3] = test system: N. gonorrhoeae ATCC 49226; assay: Liquid broth MIC in Fastidious broth; conditions: Neisseria gonorrhoeae
[4] = test system: P. aeruginosa ATCC 35151; assay: microbe, parasite or virus in culture; assay type: cell-based; conditions: Pseudomonas aeruginosa, ATCC35151, read-out: Minimum inhibitory concentration, P. aeruginosa ATCC 35151
[5] = test system: N. gonorrhoeae MS11; assay: Liquid broth MIC in Fastidious broth; conditions: Neisseria gonorrhoeae
[6] = target: T1, PBP3 from Acinetobacter baumannii (ATCC 19606) (Acinetobacter baumannii, UniProt A0ABX6CK25); assay: Bocillin-FL fluorescence polarization competition binding, A. baumannii PBP3; conditions: fluorescence polarization competition binding assay using Bocillin-FL; read-out: A. baumannii PBP3 Potency
T1 sequence (A0ABX6CK25 64-610): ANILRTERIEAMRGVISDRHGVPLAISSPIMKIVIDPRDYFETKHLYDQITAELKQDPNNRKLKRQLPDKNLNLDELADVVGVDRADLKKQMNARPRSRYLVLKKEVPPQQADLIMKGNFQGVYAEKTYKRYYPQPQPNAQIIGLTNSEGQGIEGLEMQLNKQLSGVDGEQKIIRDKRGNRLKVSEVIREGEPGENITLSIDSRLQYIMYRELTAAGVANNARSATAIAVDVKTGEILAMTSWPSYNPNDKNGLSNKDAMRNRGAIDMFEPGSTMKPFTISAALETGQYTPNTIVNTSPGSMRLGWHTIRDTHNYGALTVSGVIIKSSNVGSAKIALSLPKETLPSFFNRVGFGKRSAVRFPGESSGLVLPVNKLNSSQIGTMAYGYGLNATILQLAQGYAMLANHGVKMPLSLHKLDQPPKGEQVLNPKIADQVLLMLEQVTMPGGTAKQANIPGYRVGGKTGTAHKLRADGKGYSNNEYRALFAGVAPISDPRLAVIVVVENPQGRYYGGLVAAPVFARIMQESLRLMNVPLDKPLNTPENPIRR
Method in brief: (§1)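 Purified PBP was preincubated with inhibitor (E. coli PBP3 1.5 μM, 30 min; P. aeruginosa PBP3 0.75 μM, A. baumannii PBP3 0.2 μM and PBP1a 1 μM, 15 min), then Bocillin-FL (0.1 μM; 0.05 μM for PBP1a) added and FP read up to 60 min. EC50 = 50% loss of bound probe.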

[7] = test system: N. gonorrhoeae WHO Z; assay: Liquid broth MIC in Fastidious broth; conditions: Neisseria gonorrhoeae
[8] = test system: N. gonorrhoeae WHO K; assay: Liquid broth MIC in Fastidious broth; conditions: Neisseria gonorrhoeae
[9] = target: T2, PBP3 from Escherichia coli (K-12) (Escherichia coli, UniProt P0AD68); assay: Bocillin-FL fluorescence polarization competition binding, E. coli PBP3
T2 construct: made in house
Method in brief: as §1

[10] = test system: P. aeruginosa (ΔmexAB-oprM); assay: Broth microdilution MIC in iron-depleted CAMHB (IDM); assay type: cell-based; conditions: Pseudomonas aeruginosa; iron-depleted CAMHB (IDM); […]; read-out: Minimum inhibitory concentration, P. aeruginosa ΔmexAB-oprM
[11] = ATCC49226, read-out: Minimum Inhibitory Concentration, ATCC 49226
[12] = MS11, read-out: Minimum Inhibitory Concentration, MS11
[13] = read-out: Minimum Inhibitory Concentration, WHO Z
[14] = read-out: Minimum Inhibitory Concentration, WHO K
[15] = ATCC49226, read-out: Minimum Inhibitory Concentration (MIC), N. gonorrhoeae ATCC 49226
[16] = MS11, read-out: Minimum Inhibitory Concentration (MIC), N. gonorrhoeae MS11
[17] = read-out: Minimum Inhibitory Concentration (MIC), N. gonorrhoeae WHO Z
[18] = read-out: Minimum Inhibitory Concentration (MIC), N. gonorrhoeae WHO K

T2 sequence (P0AD68 1-577): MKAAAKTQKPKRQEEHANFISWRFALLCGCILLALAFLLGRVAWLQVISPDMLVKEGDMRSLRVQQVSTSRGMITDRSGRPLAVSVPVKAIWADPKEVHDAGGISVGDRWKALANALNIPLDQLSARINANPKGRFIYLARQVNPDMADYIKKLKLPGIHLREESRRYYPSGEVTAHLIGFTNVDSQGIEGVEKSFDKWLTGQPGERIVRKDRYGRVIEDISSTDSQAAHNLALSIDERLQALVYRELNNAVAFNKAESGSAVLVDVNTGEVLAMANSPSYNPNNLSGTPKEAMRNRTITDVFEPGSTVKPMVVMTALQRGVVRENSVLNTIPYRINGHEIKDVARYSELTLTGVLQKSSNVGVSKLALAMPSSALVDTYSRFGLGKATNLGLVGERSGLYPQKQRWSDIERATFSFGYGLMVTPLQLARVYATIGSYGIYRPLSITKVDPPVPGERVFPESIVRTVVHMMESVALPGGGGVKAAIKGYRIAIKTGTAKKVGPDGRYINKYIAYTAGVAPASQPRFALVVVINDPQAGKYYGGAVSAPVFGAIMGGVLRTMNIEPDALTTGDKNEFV

Row | SMILES | MIC [1] [µg/mL] | MIC [2] [µg/mL] | MIC [3, 11] [µg/mL] | MIC [4] [µg/mL] | MIC [5, 12] [µg/mL] | IC50 [6] [µM] | MIC [7, 13] [µg/mL] | MIC [8, 14] [µg/mL] | EC50 [9] [µM] | MIC [10] [µg/mL] | MIC [3, 15] [µg/mL] | MIC [5, 16] [µg/mL] | MIC [7, 17] [µg/mL] | MIC [8, 18] [µg/mL]
1 | O=C(NCCN1CCN(C(=O)NC(C(=O)N[C@H]2Cc3ccc(F)c(C(=O)O)c3OB2O)c2cc(F)c(O)c(O)c2Cl)C1=O)Nc1ccncc1 (stereo partly drawn) [Example 250, (3R)-3-(2-(2-chloro-5-fluoro-3,4-dihydroxyphenyl)-2-(2-oxo-3-(2-(3-(pyridin-4-yl)ureido)ethyl)imidazolidine-1-carboxamido)acetamido)-7-fluoro-2-hydroxy-3,4-dihydro-2H-benzo[e][1,2]oxaborinine-8-carboxylic acid] | 8 to 16 (≈ 11.1 to 22.3 µM) | < 1 | > 64 | < 1 | 16 to 32 (≈ 22.3 to 44.6 µM) | < 10 | > 64 | > 64 | < 10 | < 1 |  |  |  | 
2 | O=C(CN1CCN(C(=O)N[C@@H](C(=O)N[C@H]2Cc3ccc(F)c(C(=O)O)c3OB2O)c2cc(F)c(O)c(O)c2Cl)C(=O)C1=O)NCc1ccncc1 [Example 239, (R)-3-((R)-2-(2-chloro-5-fluoro-3,4-dihydroxyphenyl)-2-(2,3-dioxo-4-(2-oxo-2-((pyridin-4-ylmethyl)amino)ethyl)piperazine-1-carboxamido)acetamido)-7-fluoro-2-hydroxy-3,4-dihydro-2H-benzo[e][1,2]oxaborinine-8-carboxylic acid] | 2 to 4 (≈ 2.74 to 5.47 µM) | < 1 |  | < 1 |  | < 10 |  |  | < 10 | < 1 | 16 to 32 (≈ 21.9 to 43.8 µM) | 16 to 32 (≈ 21.9 to 43.8 µM) | 16 to 32 (≈ 21.9 to 43.8 µM) | > 64
3 | CN(CCN1CCN(C(=O)N[C@@H](C(=O)N[C@H]2Cc3ccc(F)c(C(=O)O)c3OB2O)c2cc(F)c(O)c(O)c2Cl)C(=O)C1=O)Cc1cccc(C(N)=O)c1 [Example 225, (R)-3-((R)-2-(4-(2-((3-carbamoylbenzyl)(methyl)amino)ethyl)-2,3-dioxopiperazine-1-carboxamido)-2-(2-chloro-5-fluoro-3,4-dihydroxyphenyl)acetamido)-7-fluoro-2-hydroxy-3,4-dihydro-2H-benzo[e][1,2]oxaborinine-8-carboxylic acid] | 2 to 4 (≈ 2.59 to 5.18 µM) | < 1 |  | < 1 |  | < 10 |  |  | 10 to 50 | < 1 | 16 to 32 (≈ 20.7 to 41.4 µM) | 16 to 32 (≈ 20.7 to 41.4 µM) | 16 to 32 (≈ 20.7 to 41.4 µM) | > 64
4 | O=C(NCCS(=O)(=O)N1CCN(C(=O)NC(C(=O)N[C@H]2Cc3ccc(F)c(C(=O)O)c3OB2O)c2cc(F)c(O)c(O)c2Cl)C1=O)c1ccccc1 (stereo partly drawn) [Example 260, (3R)-3-(2-(3-((2-benzamidoethyl)sulfonyl)-2-oxoimidazolidine-1-carboxamido)-2-(2-chloro-5-fluoro-3,4-dihydroxyphenyl)acetamido)-7-fluoro-2-hydroxy-3,4-dihydro-2H-benzo[e][1,2]oxaborinine-8-carboxylic acid] | 2 to 4 (≈ 2.61 to 5.22 µM) | < 1 | 16 to 32 (≈ 20.9 to 41.8 µM) | < 1 | 16 to 32 (≈ 20.9 to 41.8 µM) | < 10 | 16 to 32 (≈ 20.9 to 41.8 µM) | > 64 | < 10 | < 1 |  |  |  | 
5 | O=C(CN1CCN(C(=O)NC(C(=O)N[C@H]2Cc3ccc(F)c(C(=O)O)c3OB2O)c2cc(F)c(O)c(O)c2Cl)C(=O)C1=O)Nc1ccccc1 (stereo partly drawn) [Example 232, (3R)-3-(2-(2-chloro-5-fluoro-3,4-dihydroxyphenyl)-2-(2,3-dioxo-4-(2-oxo-2-(phenylamino)ethyl)piperazine-1-carboxamido)acetamido)-7-fluoro-2-hydroxy-3,4-dihydro-2H-benzo[e][1,2]oxaborinine-8-carboxylic acid] | 2 to 4 (≈ 2.79 to 5.59 µM) | 2 to 4 (≈ 2.79 to 5.59 µM) |  | < 1 |  | < 10 |  |  | < 10 | < 1 | 16 to 32 (≈ 22.4 to 44.7 µM) | 16 to 32 (≈ 22.4 to 44.7 µM) | 16 to 32 (≈ 22.4 to 44.7 µM) | > 64
6 | O=C(NCCN1CCN(C(=O)NC(C(=O)N[C@H]2Cc3ccc(F)c(C(=O)O)c3OB2O)c2cc(F)c(O)c(O)c2Cl)C1=O)c1cccnc1 (stereo partly drawn) [Example 246, (3R)-3-(2-(2-chloro-5-fluoro-3,4-dihydroxyphenyl)-2-(3-(2-(nicotinamido)ethyl)-2-oxoimidazolidine-1-carboxamido)acetamido)-7-fluoro-2-hydroxy-3,4-dihydro-2H-benzo[e][1,2]oxaborinine-8-carboxylic acid] | 2 to 4 (≈ 2.85 to 5.69 µM) | < 1 | 16 to 32 (≈ 22.8 to 45.5 µM) | < 1 | 16 to 32 (≈ 22.8 to 45.5 µM) | < 10 | 16 to 32 (≈ 22.8 to 45.5 µM) | > 64 | 10 to 50 | < 1 |  |  |  | 
7 | O=C(NCCS(=O)(=O)N1CCN(C(=O)NC(C(=O)N[C@H]2Cc3ccc(F)c(C(=O)O)c3OB2O)c2cc(F)c(O)c(O)c2Cl)C1=O)c1cccc(O)c1 (stereo partly drawn) [Example 261, (3R)-3-(2-(2-chloro-5-fluoro-3,4-dihydroxyphenyl)-2-(3-((2-(3-hydroxybenzamido)ethyl)sulfonyl)-2-oxoimidazolidine-1-carboxamido)acetamido)-7-fluoro-2-hydroxy-3,4-dihydro-2H-benzo[e][1,2]oxaborinine-8-carboxylic acid] | 2 to 4 (≈ 2.56 to 5.12 µM) | < 1 | 16 to 32 (≈ 20.5 to 40.9 µM) | < 1 | 16 to 32 (≈ 20.5 to 40.9 µM) | < 10 | 4 to 8 (≈ 5.12 to 10.2 µM) | > 64 | < 10 | < 1 |  |  |  | 
8 | O=C(NCCCN1CCN(C(=O)N[C@@H](C(=O)N[C@H]2Cc3ccc(F)c(C(=O)O)c3OB2O)c2cc(F)c(O)c(O)c2Cl)C1=O)c1cccc(O)c1 [Example 255, (R)-3-((R)-2-(2-chloro-5-fluoro-3,4-dihydroxyphenyl)-2-(3-(3-(3-hydroxybenzamido)propyl)-2-oxoimidazolidine-1-carboxamido)acetamido)-7-fluoro-2-hydroxy-3,4-dihydro-2H-benzo[e][1,2]oxaborinine-8-carboxylic acid] | < 1 | < 1 | 16 to 32 (≈ 21.9 to 43.7 µM) | < 1 | 16 to 32 (≈ 21.9 to 43.7 µM) | < 10 | 16 to 32 (≈ 21.9 to 43.7 µM) | > 64 | < 10 | < 1 |  |  |  | 

Reference: US20240270762A1, “PENICILLIN-BINDING PROTEIN INHIBITORS” (priority 2021, published 2024)
